Test results from paper PMC9515143, “Phosphorylation of Jhd2 by the Ras-cAMP-PKA(Tpk2) pathway regulates histone modifications and autophagy” (Nature Communications, 2022).

Tests used:
Tpk2-as [1] = test: Intracellular H3K4me3 in Tpk2-as mutant with 1NM-PP1; format: cell-based, budding yeast (Saccharomyces cerevisiae); settings: 25 μM 1NM-PP1, 0.5 hr, Western blot
Description: (§1) To examine the effect of glucose on histone modifications, yeast cells were grown in 2% glucose-containing YPD (Yeast Extract Peptone Dextrose) medium until OD600 of 0.7–1.0. Cells were then collected, washed and resuspended in YP medium for 3 hr followed by treatment with different concentrations of glucose for 0.5 hr. For 1NM-PP1 (MCE, HY-13804) treatment, cells were grown in 2% YPD until OD600 of 0.7–1.0. Cells were then treated with 25 μM 1NM-PP1 for 0.5 hr. For FBP and pyruvate treatment, cells were pre-treated with Zymolase (Mpbio, 08320921) to increase the permeability. In brief, cells were grown in YPD medium until OD600 of 0.7–1.0, centrifuged and resuspended in 1 ml SB buffer (100 mM Sorbitol, 20 mM Tris pH 7.4). 10 μl Zymolase was then added and incubated at 30 °C for 15 min. The spheroplasts were washed and cultured in YPD medium containing different concentrations of FBP and pyruvate for 3 hr.
(§2) Cells were grown in 5 ml YPD or selective medium until OD600 of 0.7–1.0. Cells were harvested and lysed in alkaline lysis buffer (2 M NaOH, 8% 2-mercaptoethanol). After centrifugation, the protein pellet was resuspended in 150 μl 2×SDS-sample buffer. Protein samples were separated by 8–15% SDS-PAGE and transferred to PVDF membrane. […] The protein bands were visualized using the ECL Chemiluminescence Detection Kit (Bio-Rad, 170–5061) and quantified with Image J software (v.1.8.0). […]

Tpk1-as = test: Intracellular H3K4me3 in Tpk1-as mutant with 1NM-PP1; format: cell-based, budding yeast (Saccharomyces cerevisiae); settings: 25 μM 1NM-PP1, 0.5 hr, Western blot
Description: as §1, §2

WT cells = test: Intracellular Jhd2 phosphorylation in WT cells with 1NM-PP1; format: cell-based, budding yeast (Saccharomyces cerevisiae); settings: 25 μM 1NM-PP1, 0.5 hr, Western blot
Description: as §1, §2

Tpk2-as [2] = test: Intracellular Jhd2 phosphorylation in Tpk2-as mutant with 1NM-PP1; format: cell-based, budding yeast (Saccharomyces cerevisiae); settings: 25 μM 1NM-PP1, 0.5 hr, Western blot
Description: as §1, §2

WT Tpk2 = test: In vitro kinase assay, WT Tpk2, Jhd2 substrate; format: biochemical, budding yeast (Saccharomyces cerevisiae); settings: 25 μM 1NM-PP1, in vitro kinase assay, 30 °C, Western blot
Description: (§3) 0–300 ng purified Jhd2 was mixed with or without 200 ng TAP purified Tpk2 in 2×kinase reaction buffer (100 mM Tris-HCl pH 7.4, 100 mM MgCl2, 10 mM ATP, 0.2 μM PMSF, 1 mM Na3VO4, 5% glycerol) at 30 °C. Equal aliquots were taken at different time points, and the reaction was quenched by adding 2×SDS-PAGE loading buffer and incubated at 95 °C for 10 min. Boiled samples were resolved on 10% SDS-PAGE and subjected to Western blot analysis.

Tpk2-as [3] = test: In vitro kinase assay, Tpk2-as, Jhd2 substrate; format: biochemical, budding yeast (Saccharomyces cerevisiae); settings: 25 μM 1NM-PP1, in vitro kinase assay, 30 °C, Western blot
Description: as §3

Tpk3-as = test: Intracellular H3K4me3 in Tpk3-as mutant with 1NM-PP1; format: cell-based, budding yeast (Saccharomyces cerevisiae); settings: 25 μM 1NM-PP1, 0.5 hr, Western blot
Description: as §1, §2

For CC(C)(C)n1nc(Cc2cccc3ccccc23)c2c(N)ncnc21 [1NM-PP1], the “intracellular H3K4me3, Tpk2-as mutant” value (Tpk2-as [1]) was “significantly reduced by 1NM-PP1 in Tpk2-as mutant”, the “intracellular H3K4me3, Tpk1-as mutant” value (Tpk1-as) was “significantly reduced by 1NM-PP1 in Tpk2-as mutant but not Tpk1-as and Tpk3-as mutants” and the “intracellular Jhd2 phosphorylation, WT cells” value (WT cells) was “significantly reduced in Tpk2-as mutant but not WT cells”. For the same compound, the “intracellular Jhd2 phosphorylation, Tpk2-as mutant” value (Tpk2-as [2]) was “significantly reduced in Tpk2-as mutant”, the “Jhd2 phosphorylation in vitro, WT Tpk2” value (WT Tpk2) was “Jhd2 was phosphorylated by WT Tpk2 but not Tpk2-as mutant when treated with 25 μM 1NM-PP1” and the “inhibition of Tpk2-catalyzed Jhd2 phosphorylation in vitro, Tpk2-as” value (Tpk2-as [3]) was “directly inhibited Tpk2-catalyzed Jhd2 phosphorylation”. The “intracellular H3K4me3, Tpk3-as mutant” value (Tpk3-as) was “significantly reduced by 1NM-PP1 in Tpk2-as mutant but not Tpk1-as and Tpk3-as mutants”.
